Consider nine molecules from article PMC7211837, “Design, synthesis, molecular modelling and in vitro screening of monoamine oxidase inhibitory activities of novel quinazolyl hydrazine derivatives” (Royal Society Open Science, 2020).

Series [1] deals with T1, membrane-bound human MAO-A (Homo sapiens, UniProt P21397).
T1 sequence (P21397 1-527): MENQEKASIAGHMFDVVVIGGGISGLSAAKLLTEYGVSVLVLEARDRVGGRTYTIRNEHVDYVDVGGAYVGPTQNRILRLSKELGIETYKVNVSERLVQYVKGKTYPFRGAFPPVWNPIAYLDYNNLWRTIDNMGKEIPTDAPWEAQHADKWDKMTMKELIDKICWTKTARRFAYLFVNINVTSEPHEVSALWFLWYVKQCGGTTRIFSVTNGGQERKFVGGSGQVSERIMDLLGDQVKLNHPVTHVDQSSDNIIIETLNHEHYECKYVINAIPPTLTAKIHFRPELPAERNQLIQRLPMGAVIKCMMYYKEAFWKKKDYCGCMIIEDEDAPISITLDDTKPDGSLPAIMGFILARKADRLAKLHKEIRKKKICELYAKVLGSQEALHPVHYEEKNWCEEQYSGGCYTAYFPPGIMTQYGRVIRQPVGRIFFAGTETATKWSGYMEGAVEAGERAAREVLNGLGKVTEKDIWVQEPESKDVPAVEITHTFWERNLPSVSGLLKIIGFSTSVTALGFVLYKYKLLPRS
Put plainly: MAO-A inhibition, H2O2/horseradish peroxidase coupled fluorescence assay with tyramine. It counts as biochemical. The following applies: for selectivity MAO-A versus MAO-B: from IC50 values on MAO-A and MAO-B; for inhibition at 10 µM: read-out: % inhibition at 10 μM hMAO-A; for IC50 (μM) hMAO-A / IC50: tyramine at 2 × KM, seven concentrations 0.01–300 µM, ± s.d., two independent experiments; for IC50: read-out: IC50 (μM) hMAO-A; for mechanism of inhibition of MAO-A: 30 min preincubation, dilution ×100, increasing substrate concentration; for inhibition of MAO-A compared with MAO-B in the screen: screen at 10 µM. On the procedure: (§1) Incomplete inhibition of activity could arise either from indirect effects on these enzymes or from the compounds acting as substrates at the highest concentrations.
(§2) The activity of MAO was determined using the coupled assay method of [41, 42] in which the product, H2O2, acts with horseradish peroxidase to convert 10-acetyl-3,7-dihydroxyphenoxazine to the fluorescent resorufin. […] The data were analysed using the equation for a three-parameter curve in Graphpad PRISM v. 4, and the % inhibition calculated from the top and bottom of the resulting curve.

The target in series [2] is T2, membrane-bound human MAO-B (Homo sapiens, UniProt P27338).
T2 sequence (P27338 1-520): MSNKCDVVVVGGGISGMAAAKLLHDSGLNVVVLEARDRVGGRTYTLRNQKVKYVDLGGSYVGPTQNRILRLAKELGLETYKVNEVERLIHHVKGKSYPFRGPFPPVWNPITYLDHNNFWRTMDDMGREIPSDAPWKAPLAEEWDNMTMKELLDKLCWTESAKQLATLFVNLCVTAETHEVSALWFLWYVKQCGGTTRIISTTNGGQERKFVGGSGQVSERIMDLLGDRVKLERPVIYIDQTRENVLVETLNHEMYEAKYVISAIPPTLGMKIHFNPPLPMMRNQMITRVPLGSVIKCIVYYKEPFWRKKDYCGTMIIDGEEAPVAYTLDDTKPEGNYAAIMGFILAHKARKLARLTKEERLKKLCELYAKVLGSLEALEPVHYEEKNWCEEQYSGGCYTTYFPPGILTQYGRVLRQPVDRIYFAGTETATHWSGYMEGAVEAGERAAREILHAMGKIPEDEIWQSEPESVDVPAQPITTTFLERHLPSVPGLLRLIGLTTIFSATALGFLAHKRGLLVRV
Put plainly: MAO-B inhibition, H2O2/horseradish peroxidase coupled fluorescence assay with tyramine. In kind it is biochemical. The following applies: for maximum inhibition (%) hMAO-B: from dose–response curve, in parentheses after IC50, given if less than 95%; for inhibition at 10 µM: read-out: % inhibition at 10 μM hMAO-B, 10 μM compound, tyramine 0.32 mM (2 × KM), average of two independent experiments; for IC50 (μM) hMAO-B / IC50: tyramine at 2 × KM, seven concentrations 0.01–300 µM, ± s.d., two independent experiments; for IC50: read-out: IC50 (μM) hMAO-B. The procedure:
as §1, §2

Series [3] deals with T3, MAO-A (Homo sapiens, UniProt P21397).
T3 sequence (P21397 1-527): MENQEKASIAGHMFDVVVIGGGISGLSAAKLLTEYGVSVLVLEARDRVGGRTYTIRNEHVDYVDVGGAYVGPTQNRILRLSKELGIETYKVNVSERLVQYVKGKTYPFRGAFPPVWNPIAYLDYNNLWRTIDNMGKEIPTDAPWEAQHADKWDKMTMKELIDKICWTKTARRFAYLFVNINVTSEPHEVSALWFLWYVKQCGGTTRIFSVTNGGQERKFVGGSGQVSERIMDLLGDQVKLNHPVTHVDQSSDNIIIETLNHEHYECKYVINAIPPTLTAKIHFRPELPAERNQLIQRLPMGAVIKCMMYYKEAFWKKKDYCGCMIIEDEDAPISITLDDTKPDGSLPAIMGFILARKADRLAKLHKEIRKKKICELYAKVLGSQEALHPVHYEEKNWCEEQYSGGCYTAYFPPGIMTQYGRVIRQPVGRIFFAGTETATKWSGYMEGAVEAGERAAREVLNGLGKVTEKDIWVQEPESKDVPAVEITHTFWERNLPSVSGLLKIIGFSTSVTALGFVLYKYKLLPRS
Kind of series: Oxidation of compound by MAO-A in the standard coupled assay in the absence of tyramine. In kind it is biochemical. The procedure: (§3) Compound 6 in the screening assay with 10 µM inhibitor gave an increased rate of appearance of fluorescence indicating faster production of the product H2O2 (not the slower rate observed with other compounds that inhibit MAO activity).
(§4) Figure 3. Oxidation of 6 (squares) but not 12d (triangles) by MAO-A. The concentration of compound was varied in the standard assay coupled to the production of H2O2 but in the absence of the substrate tyramine.
(§5) The activity of MAO was determined using the coupled assay method of [41, 42] in which the product, H2O2, acts with horseradish peroxidase to convert 10-acetyl-3,7-dihydroxyphenoxazine to the fluorescent resorufin. […] For compounds that gave more than 30% inhibition, the IC50 was determined using seven concentrations of each compound (0.01–300 μM) with substrate at 2 × KM. […] The data were analysed using the equation for a three-parameter curve in Graphpad PRISM v. 4, and the % inhibition calculated from the top and bottom of the resulting curve.

Series [4] relates to MAO-A. Details: method as in PMID 16356714, PMID 20708306, PMID 19043245, PMID 25707011, PMID 25922182. The following applies: lead structure of Chart 1, earlier series of the group ref 21–25; cited from earlier work.
Substrate in series [5]: COc1cc(/C=N/NC(=O)CNC(=O)c2cc(Cl)ccc2/N=C/c2ccccc2)ccc1O
Put plainly: Oxidation of compound by MAO-A in the standard coupled assay in the absence of tyramine. The following applies: other: compound as substrate. It counts as biochemical, human. On the procedure: as §3, §4, §5

[6] abbreviates: 10 μM compound, tyramine 0.8 mM (2 × KM), average of two independent experiments.

The inhibition is the relative decrease from the control value, in per cent. For orientation: IC50 means the concentration that gives 50% inhibition. A word on the melting point: it is the temperature, or range, at which the solid turns liquid. One may read the Km as the concentration of substrate that gives half-maximal velocity.

Entries after “also recorded” stand apart in the source; their conditions may differ. Marks after values point to notes of the source that are not given here.

On to `O=C(CN1C(=O)c2cc(Cl)ccc2NC1c1ccccc1)NN=Cc1ccc(O)cc1` (centres unmarked) [5g, 2-(6-Chloro-4-oxo-2-phenyl-1,4-dihydroquinazolin-3(2H)-yl)-N'-(4-hydroxybenzylidene)acetohydrazide], for which the melting point is 236 to 240 °C. For the same molecule, in series [1], the “selectivity MAO-A versus MAO-B” value is listed as “A-selective”, the “IC50 (μM) hMAO-A” value is “micromolar potency” and the half-maximal inhibitory concentration (IC50) amounted to 4.34 ± 1.31 µM. For the same molecule, the inhibition at 10 µM in series [1] (setting [6]) is 22%. Also, in series [2], the “maximum inhibition (%) hMAO-B” value was “full inhibition”, the inhibition at 10 µM was 36%, the “IC50 (μM) hMAO-B” value is “micromolar affinity” and the IC50 stood at 11 ± 4 µM.

`COc1cc(C=NNC(=O)CN2C(=O)c3cc(Cl)ccc3NC2c2ccccc2)ccc1O` (centres unmarked) [5h, 2-(6-Chloro-4-oxo-2-phenyl-1,4-dihydroquinazolin-3(2H)-yl)-N'-(4-hydroxy-3-methoxybenzylidene)-acetohydrazide] came in with a melting point of 240 to 242 °C. In series [1], the “mechanism of inhibition of MAO-A” value is given as “competitive inhibition”; the “selectivity MAO-A versus MAO-B” value is “non-selective”; the “inhibition of MAO-A compared with MAO-B in the screen” value is “equal inhibition of MAO-A and MAO-B; also recorded: equally inhibited”; the “IC50 (μM) hMAO-A” value was “micromolar potency”. Moreover, the IC50 in series [1] came out at 0.31 ± 0.11 µM. Moreover, the inhibition at 10 µM in series [1] (setting [6]) worked out at 70%. Besides, in series [2], the “maximum inhibition (%) hMAO-B” value was “full inhibition”, the inhibition at 10 µM was found to be 72%, the “IC50 (μM) hMAO-B” value is “micromolar affinity” and the IC50 was 0.44 ± 0.1 µM.

Regarding `Cc1nc2ccccc2c(=O)n1CC(=O)NN=Cc1ccccc1` [12a, N'-Benzylidene-2-(2-methyl-4-oxoquinazolin-3(4H)-yl)acetohydrazide], the melting point is 242 to 245 °C. Moreover, in series [1] (setting [6]), the inhibition at 10 µM was 6%. In series [2], the inhibition at 10 µM is 26%.

In the case of `Cc1nc2ccccc2c(=O)n1CC(=O)NN=Cc1ccc(O)cc1` [12b, N'-(4-Hydroxybenzylidene)-2-(2-methyl-4-oxoquinazolin-3(4H)-yl)acetohydrazide], the melting point was 192 to 195 °C. Further, the inhibition at 10 µM in series [1] (setting [6]) turned out to be 16%. The “inhibition of MAO-A compared with MAO-B in the screen” value in series [1] was “equal inhibition of MAO-A and MAO-B; also recorded: equally inhibited”. In addition, in series [2], the inhibition at 10 µM turned out to be 16% and the half-maximal inhibitory concentration (IC50) was over 100 µM.

As for `COc1ccc(C=NNC(=O)Cn2c(C)nc3ccccc3c2=O)cc1` [12c, N'-(4-Methoxybenzylidene)-2-(2-methyl-4-oxoquinazolin-3(4H)-yl)acetohydrazide], the melting point was > 229 °C (dec.). In series [1] (setting [6]), the inhibition at 10 µM was found to be 5%. For the same molecule, the inhibition at 10 µM in series [2] worked out at 21%.

`COc1cc(C=NNC(=O)Cn2c(C)nc3ccccc3c2=O)ccc1O` [12d, N'-(4-Hydroxy-3-methoxybenzylidene)-2-(2-methyl-4-oxoquinazolin-3(4H)-yl)acetohydrazide] displayed a melting point of 258 to 260 °C. Also, in series [1], the “mechanism of inhibition of MAO-A” value was “competitive inhibition” and the 50% inhibitory concentration (IC50) stood at 1.41 ± 0.47 µM. The “maximum inhibition (%) hMAO-A” value in series [1] (from dose–response curve, in parentheses after IC50, given if less than 95%) amounted to 32%. Moreover, the inhibition at 10 µM in series [1] (setting [6]) was found to be 27%. Besides, in series [2] (30 min preincubation, dilution ×100, increasing substrate concentration), the “mechanism of inhibition of MAO-B” value is recorded as “competitive inhibition”. In addition, in series [2], the “maximum inhibition (%) hMAO-B” value is recorded as “full inhibition”, the inhibition at 10 µM was found to be 52%, the “IC50 (μM) hMAO-B” value is “micromolar affinity” and the IC50 is 3.62 ± 0.69 µM.

`COc1cc(/C=N/NC(=O)CNC(=O)c2cc(Cl)ccc2/N=C/c2ccccc2)ccc1O` [compound 6, 2-(((E)-benzylidene)amino)-5-chloro-N-(2-(2-((E)-4-hydroxy-3-methoxybenzylidene)hydrazinyl)-2-oxoethyl)benzamide] returned a melting point of 257 to 259 °C. Further, the “% inhibition at 10 μM hMAO-A” value in series [1] (setting [6]) is reported as “none”. The “IC50 (μM) hMAO-A” value in series [1] is given as “(rate increases)^c”. In series [2], the inhibition at 10 µM was determined as 12% and the half-maximal inhibitory concentration (IC50) is 9 ± 2.3 µM. Also, the “H2O2 production / oxidation by MAO-A in the absence of the normal substrate” value at MAO-A [3] (absence of tyramine) was “gave a measurable rate of H2O2 production”. Moreover, the “Vmax for oxidation by MAO-A as % of the Vmax for tyramine” value on MAO-A [3] (same conditions, tyramine run in parallel) was found to be 77%.

For the molecule `C/C(=N/NC(=O)Cn1c(=O)c(Cc2ccccc2)nc2ccccc21)c1ccc(O)cc1` [lead structure], the “MAO-A activity PIC50” value with MAO-A [4] is 7.8.

B1: MAO-A (Homo sapiens) (protein)
chain: MENQEKASIAGHMFDVVVIGGGISGLSAAKLLTEYGVSVLVLEARDRVGGRTYTIRNEHVDYVDVGGAYVGPTQNRILRLSKELGIETYKVNVSERLVQYVKGKTYPFRGAFPPVWNPIAYLDYNNLWRTIDNMGKEIPTDAPWEAQHADKWDKMTMKELIDKICWTKTARRFAYLFVNINVTSEPHEVSALWFLWYVKQCGGTTRIFSVTNGGQERKFVGGSGQVSERIMDLLGDQVKLNHPVTHVDQSSDNIIIETLNHEHYECKYVINAIPPTLTAKIHFRPELPAERNQLIQRLPMGAVIKCMMYYKEAFWKKKDYCGCMIIEDEDAPISITLDDTKPDGSLPAIMGFILARKADRLAKLHKEIRKKKICELYAKVLGSQEALHPVHYEEKNWCEEQYSGGCYTAYFPPGIMTQYGRVIRQPVGRIFFAGTETATKWSGYMEGAVEAGERAAREVLNGLGKVTEKDIWVQEPESKDVPAVEITHTFWERNLPSVSGLLKIIGFSTSVTALGFVLYKYKLLPRS
Consider B1, for which, in series [5], the Michaelis constant (Km) turned out to be 35.5 µM.
